Measurements as given in patent US5599811A, “Benzothiazine dioxides as endothelin antagonists” (Warner-Lambert Company, priority 1995, dated 1997).
pIC50: −log10 of the molar value.

What was measured:
recombinant human ETB R = biological target: T1, recombinant human ETB R (Homo sapiens, UniProt P24530); assay type: binding; conditions: [125I]-ET-1 40 pM, 2 hours at 37° C.; read-out: HERBAB IC50
T1 construct: expressed in transfected cells; host or cells: CHO-K1 cells
T1 sequence (P24530 27-442): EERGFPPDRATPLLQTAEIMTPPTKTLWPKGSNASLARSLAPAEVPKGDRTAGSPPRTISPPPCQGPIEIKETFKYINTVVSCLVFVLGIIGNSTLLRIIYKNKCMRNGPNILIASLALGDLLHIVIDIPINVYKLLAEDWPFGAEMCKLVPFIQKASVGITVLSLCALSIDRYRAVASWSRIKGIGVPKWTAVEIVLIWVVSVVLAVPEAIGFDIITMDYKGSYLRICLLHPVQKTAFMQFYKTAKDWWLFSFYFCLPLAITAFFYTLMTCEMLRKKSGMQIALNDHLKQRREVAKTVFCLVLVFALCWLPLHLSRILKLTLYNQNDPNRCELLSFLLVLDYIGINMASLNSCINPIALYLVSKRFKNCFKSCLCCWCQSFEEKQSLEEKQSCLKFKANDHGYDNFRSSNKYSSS
Experimental: (§1) The compounds of Formula I are valuable antagonists of endothelin.
(§2) The following cultured cells were used in binding experiments: rabbit renal artery vascular smooth muscle cells (ERBA-A), Ltk-cells expressing recombinant human ETA R (HERBA-A), and CHO-K1 cells expressing recombinant human ETB R (HERBA-B).
(§3) Membranes were prepared from cultured cells by lysing cells in cold lysis buffer (5 mM HEPES, 2 mM EDTA, pH 7.4) and homogenizing with a Dounce "A" homogenizer. The homogenate was centrifuged at 30,000× g for 20 minutes at 4° C. Membrane pellets were suspended in cold buffer containing 20 mM Tris, 2 mM EDTA, 200 μM Pefabloc, 10 μM phosphoramidon, 10 μM leupeptin, 1 μM pepstatin at pH 7.4 and frozen at -80° C. until use. Membranes were thawed and homogenized with a Brinkmann Polytron then diluted in tissue buffer containing 20 mM Tris, 2 mM EDTA, 200 μM Pefabloc, and 100 μM bacitracin (pH 7.4). Radioligand and competing ligands were prepared in binding buffer containing 20 mM Tris, 2 mM EDTA, and 0.1% BSA.
(§4) Competing binding assays were initiated by combining membranes, [125I]-ET-1 (40 pM) and the competing ligand in a final volume of 250 μL and incubating for 2 hours at 37° C. The assay was terminated by filtration over Whatman GF/B filters which were presoaked with 50 mM Tris, pH 7.4 containing 0.2% BSA and 100 μM bacitracin. Nonspecific binding was defined as binding in the presence of 100 nM ET-1.

recombinant human ETA R = biological target: T2, recombinant human ETA R (Homo sapiens, UniProt P25101); assay type: binding; conditions: [125I]-ET-1 40 pM, 2 hours at 37° C.; read-out: HERBAA IC50
T2 construct: expressed in transfected cells; host or cells: Ltk- cells
T2 sequence (P25101 21-427): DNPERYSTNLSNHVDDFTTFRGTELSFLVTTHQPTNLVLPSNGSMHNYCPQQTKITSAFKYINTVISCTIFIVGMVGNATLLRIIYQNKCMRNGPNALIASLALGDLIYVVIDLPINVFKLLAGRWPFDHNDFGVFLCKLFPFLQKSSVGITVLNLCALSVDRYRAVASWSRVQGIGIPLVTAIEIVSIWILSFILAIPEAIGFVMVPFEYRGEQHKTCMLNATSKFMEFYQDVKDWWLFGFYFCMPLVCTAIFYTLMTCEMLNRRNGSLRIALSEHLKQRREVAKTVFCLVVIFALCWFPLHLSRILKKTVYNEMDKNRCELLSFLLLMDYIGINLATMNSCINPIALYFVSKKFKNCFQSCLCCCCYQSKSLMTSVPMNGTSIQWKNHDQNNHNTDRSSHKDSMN
Experimental: as §1, §2, §3, §4

| pIC50 (recombinant human ETB R) | pIC50 (recombinant human ETA R) | Compound |
| --- | --- | --- |
| 5.64 | 6.40 | COc1ccc(CN2C(C(=O)O)=C(Sc3ccc4c(c3)OCO4)c3ccccc3S2(=O)=O)cc1 [Example 44, 4-(benzo[1,3]dioxol-5-ylsulfanyl)-2-(4-methoxy-benzyl)-1,1-dioxo-1,2-dihydro-1λ^6-benzo[e][1,2]thiazine-3-carboxylic acid] |
| 5.34 | 6.80 | O=C(O)C1=C(c2ccc3c(c2)OCO3)c2ccccc2S(=O)(=O)N1Cc1ccccc1 [Example 27, 4-Benzo[1,3]dioxol-5-yl-2-benzyl-1,1-dioxo-1,2-dihydro-1λ^6-benzo[e][1,2]thiazine-3-carboxylic acid] |
| 5.06 | 6.29 | COc1cccc(SC2=C(C(=O)O)N(Cc3ccc4c(c3)OCO4)S(=O)(=O)c3ccccc32)c1 [Example 49, 2-Benzo[1,3]dioxol-5-ylmethyl-4-(3-methoxyphenylsulfanyl)-1,1-dioxo-1,2-dihydro-1λ^6-benzo[e][1,2]thiazine-3-carboxylic acid] |
| 5.31 | 5.74 | COc1ccc(CN2C(C(=O)O)=C(c3ccc4c(c3)OCO4)c3ccccc3S2(=O)=O)c(OCC(=O)O)c1 [Example 30, 4-Benzo[1,3]dioxol-5-yl-2-(2-carboxymethoxy-4-methoxybenzyl)-1,1-dioxo-1,2-dihydro-1λ^6-benzo[e][1,2]thiazine-3-carboxylic acid] |
| 4.92 | 6.70 | COc1cc(CN2C(C(=O)O)=C(Sc3ccc4c(c3)OCO4)c3ccccc3S2(=O)=O)cc(OC)c1OC [Example 45, 4-(benzo[1,3]dioxol-5-ylsulfanyl)-2-(3,4,5-trimethoxy-benzyl)-1,1-dioxo-1,2-dihydro-1λ^6-benzo[e][1,2]thiazine-3-carboxylic acid] |
| < 4.60 | 5.52 | O=C(NS(=O)(=O)c1ccccc1)C1=C(c2ccc3c(c2)OCO3)c2ccccc2S(=O)(=O)N1Cc1ccc2c(c1)OCO2 [Example 35, N-(4-Benzo[1,3]dioxo-5-yl-2-benzo[1,3]dioxol-5-ylmethyl-1,1-dioxo-1,2-dihydro-1λ^6-benzo[e][1,2]thiazine-3-carbonyl)-benzenesulfonamide] |
| 4.66 | 6.29 | O=C(O)C1=C(Sc2ccc3c(c2)OCO3)c2ccccc2S(=O)(=O)N1Cc1cc2c(cc1Cl)OCO2 [Example 46, 4-(Benzo[1,3]dioxol-5-ylsulfanyl)-2-(6-chloro-benzo[1,3]dioxol-5-ylmethyl)-1,1-dioxo-1,2-dihydro-1λ^6-benzo[e][1,2]thiazine-3-carboxylic acid] |
| 5.33 | 6.77 | COc1cc(CN2C(C(=O)O)=C(c3ccc4c(c3)OCO4)c3ccccc3S2(=O)=O)cc(OC)c1OC [Example 29, 4-Benzo[1,3]dioxol-5-yl-1,1-dioxo-2-(3,4,5-trimethoxybenzyl)-1,2-dihydro-1λ^6-benzo[e][1,2]thiazine-3-carboxylic acid] |
| 5.46 | 6.52 | COc1cc2c(cc1OC)S(=O)(=O)N(Cc1ccc3c(c1)OCO3)C(C(=O)O)=C2Sc1ccc2c(c1)OCO2 [Example 50, 2-Benzo[1,3]dioxol-5-ylmethyl-4-(benzo[1,3]dioxol-5-ylsulfanyl)-6,7-dimethoxy-1,1-dioxo-1,1-dihydro-1λ^6-benzo[e][1,2]thiazine-3-carboxylic acid] |
| 5.44 | 6.14 | COc1ccc(C2=C(C(=O)O)N(Cc3ccc4c(c3)OCO4)S(=O)(=O)c3ccccc32)cc1OC [Example 33, 2-Benzo[1,3]dioxol-5-ylmethyl-4-(3,4-dimethoxy-phenyl)-1,1-dioxo-1,2-dihydro-1λ^6-benzo[e][1,2]thiazine-3-carboxylic acid] |
| 4.92 | 6.92 | O=C(O)C1=C(Sc2ccc3c(c2)OCO3)c2ccccc2S(=O)(=O)N1Cc1ccccc1 [Example 43, 4-(benzo[1,3]dioxol-5-ylsulfanyl)-2-benzyl-1,1-dioxo-1,2-dihydro-1λ^6-benzo[e][1,2]thiazine-3-carboxylic acid] |
